The numbers were not newly measured in patent US10487097B2, “4,6-di-(O-thiophosphate)-inositol-1,2,3,5-tetra-O-sulfate for C. difficile infection” (priority 2015, dated 2019), which cites them from elsewhere.

Structures are written as SMILES.

The conditions of the data set: colon lumen, background statement.

Regarding `O=P(O)(O)O[C@H]1[C@H](OP(=O)(O)O)[C@@H](OP(=O)(O)O)[C@H](OP(=O)(O)O)[C@@H](OP(=O)(O)O)[C@H]1OP(=O)(O)O` [IP6, inositol hexakisphosphate], the “precipitation due to high calcium concentration” value was “precipitates”.
